Laboratory results: US4373106A, “Sulfamoyl-substituted phenethylamine derivatives and process of producing them” (Yamanouchi Pharmaceutical Co., Ltd., priority 1980, dated 1983)
Read-outs that look alike come from different tables or passages of the source.

Legend:
[1] = tested on: spontaneously hypertensive rats; assay: Antihypertensive effects in spontaneously hypertensive rats, oral, tail cuff method; assay type: in vivo; settings: systolic blood pressure higher than 150 mmHg
Method: Oral administration: The systolic blood pressure was measured indirectly from the tail cuff method using a programmed electrosphygmanometer (Narco Bio-Systems Inc., PE-300) on spontaneously hypertensive rats having a systolic blood pressure higher than 150 mmHg, the results being shown in Table II.

α-adrenergic = assay: α-Adrenergic blocking action: antagonism of the hypertensive response to phenylephrine in anesthetized, pentolinium-treated rats; assay type: in vivo; settings: Rattus norvegicus, iv, read-out: α-adrenergic blocking ED50
Method: A. α-Adrenergic blocking action:
The blood pressure was measured in the rats anesthetized with urethane and treated with pentolinium.

α- and β-adrenergic = settings: as disclosed in British Pat. No. 2,006,772; cited from earlier work
[2] = rats anesthetized with urethane, treated with pentolinium, phenylephrine 10 μg/Kg i.v.

CCOc1ccccc1OCCNC(C)Cc1ccc(OC)c(S(N)(=O)=O)c1.Cl (centres unmarked) [Example 20, 5-{2-[2-(2-Ethoxyphenoxy)ethylamino]-2-methylethyl}-2-methoxybenzenesulfonamide hydrochloride]
Change in systolic blood pressure at stated dose p.o. ([1]; 3 mg/Kg p.o.): -57 ± 4.2 mmHg

COc1ccccc1OCCNCCc1ccc(C)c(S(N)(=O)=O)c1.Cl [Example 11, 5-{2-[2-(2-Methoxyphenoxy)ethylamino]ethyl}-2-methylbenzenesulfonamide hydrochloride]
ED50 (α-adrenergic; [2]): 12 µg/kg
Change in systolic blood pressure at stated dose p.o. ([1]; 30 mg/Kg p.o.): -50 ± 4.7 mmHg

CCOc1ccccc1OCCNCCc1ccc(C)c(S(N)(=O)=O)c1.Cl [Example 12, 5-{2-[2-(2-Ethoxyphenoxy)ethylamino]ethyl}-2-methylbenzenesulfonamide hydrochloride]
ED50 (α-adrenergic; [2]): 7.3 µg/kg
Change in systolic blood pressure at stated dose p.o. ([1]; 10 mg/Kg p.o.): -48 ± 2.0 mmHg

COc1ccccc1OCCNC(C)Cc1ccc(C)c(S(N)(=O)=O)c1.Cl (centres unmarked) [Example 25, 5-{2-[2-(2-Methoxyphenoxy)ethylamino]-2-methylethyl}-2-methylbenzenesulfonamide hydrochloride]
ED50 (α-adrenergic): 1.2 µg/kg
Change in systolic blood pressure at stated dose p.o. ([1]; 10 mg/Kg p.o.): -46 ± 3.6 mmHg

COc1ccccc1OCCNCCc1ccc(OC)c(S(N)(=O)=O)c1.Cl [Example 10, 2-methoxy-5-{2-[2-(2-methoxyphenoxy)ethylamino]ethyl}benzenesulfonamide hydrochloride]
ED50 (α-adrenergic; [2]): 5.9 µg/kg
Change in systolic blood pressure at stated dose p.o. ([1]; 10 mg/Kg p.o.): -57 ± 5.6 mmHg

COc1ccccc1OCCNCCc1ccc(O)c(S(N)(=O)=O)c1 [Example 15, 2-Hydroxy-5-{2-[2-(2-methoxyphenoxy)ethylamino]ethyl}benzenesulfonamide]
ED50 (α-adrenergic; [2]): 1.3 µg/kg
Change in systolic blood pressure at stated dose p.o. ([1]; 10 mg/Kg p.o.): -54 ± 6.2 mmHg

CNS(=O)(=O)c1cc(CC(C)NCCOc2ccccc2OC)ccc1OC.Cl (centres unmarked) [Example 4, 2-methoxy-5-{2-[2-(2-methoxyphenoxy)ethylamino]-2-methylethyl}-N-methylbenzenesulfonamide hydrochloride]
ED50 (α-adrenergic): 0.35 µg/kg

CCC(Cc1ccc(C)c(S(N)(=O)=O)c1)NCCOc1ccccc1OC.Cl (centres unmarked) [Example 26, 5-{2-[2-(2-Methoxyphenoxy)ethylamino]-2-ethylethyl}-2-methylbenzenesulfonamide hydrochloride]
ED50 (α-adrenergic; [2]): 4 µg/kg
Change in systolic blood pressure at stated dose p.o. ([1]; 10 mg/Kg p.o.): -46 ± 4.3 mmHg

COc1ccccc1OCCNC(C)Cc1ccc(OC)c(S(N)(=O)=O)c1.Cl (centres unmarked) [Example 16, 2-Methoxy-5-{2-[2-(2-methoxyphenoxy)ethylamino]-2-methylethyl}benzenesulfonamide hydrochloride]
ED50 (α-adrenergic): 0.8 µg/kg
Change in systolic blood pressure at stated dose p.o. ([1]; 10 mg/Kg p.o.): -71 ± 11.1 mmHg

COc1ccccc1OCCNC(C)Cc1ccc(OC)c(S(=O)(=O)N(C)C)c1.Cl (centres unmarked) [Example 5, 2-Methoxy-5-{2-[2-(2-methoxyphenoxy)ethylamino]-2-methylethyl}-N,N-dimethylbenzenesulfonamide hydrochloride]
ED50 (α-adrenergic): 0.26 µg/kg

Cc1ccc(N(CC2=NCCN2)c2cccc(O)c2)cc1 [Phentolamine, phentolamine, reference compound]
ED50 (α-adrenergic; [2]): 61 µg/kg
Change in systolic blood pressure at stated dose p.o. ([1]; 10 mg/Kg p.o.): +7.8 ± 5.0 mmHg
Change in systolic blood pressure at stated dose p.o. ([1]; 100 mg/Kg p.o.): -70 ± 10.1 mmHg

COc1ccccc1OCCNCC(O)c1ccc(C)c(S(N)(=O)=O)c1 (centres unmarked) [Compound A, 5-{1-hydroxy-2-[2-(2-methoxyphenoxy)ethylamino]ethyl}-2-methylbenzenesulfonamide, reference compound]
ED50 (α-adrenergic; [2]): 34 µg/kg
Change in systolic blood pressure at stated dose p.o. ([1]; 10 mg/Kg p.o.): -35 ± 6.4 mmHg
α- and β-adrenergic blocking actions (α- and β-adrenergic): strong α- and β-adrenergic blocking actions
